# In US4096257A, “Substituted imidazo [1,2-d]-as-triazines” (American Cyanamid Company, priority 1977, dated 1978):
# System: Mouse Skin Phosphodiesterase (cyclic-AMP phosphodiesterase)
# Assay: mouse skin phosphodiesterase (PDE) inhibition test
# Assay type: biochemical
# Design: key to Mouse Skin Phosphodiesterase: Active: A compound is considered active if it inhibits more than theophylline, that is, to 50% of control at 1 mM concentration of compound, or to 80% of control of 0.05 mM concentration of compound
# Conditions: for Mouse Skin Phosphodiesterase: hairless mouse epidermal PDE, 3H-cyclic AMP substrate, final concentration of test compounds 10 ug./ml
Mouse Skin Phosphodiesterase,Compound,"inhibition of skin phosphodiesterase, % of control (0.05 mM concentration of compound)","inhibition of skin phosphodiesterase, % of control (1 mM concentration of compound)"
,Cn1c(=O)c2[nH]cnc2n(C)c1=O [theophylline],80 % of control,50 % of control
Active,"O=c1[nH]nc(-c2ccccc2)n2ccnc12 [5-phenyl-imidazo[1,2-d]-as-triazin-8(7H)-one]",,
Active,"CCCc1n[nH]c(=O)c2nccn12 [5-n-propyl-imidazo[1,2-d]-as-triazin-8(7H)-one]",,
